4 molecules from ChEMBL document CHEMBL4340576, “Synthesis of oxadiazole-coupled-thiadiazole derivatives as a potent β-glucuronidase inhibitors and their molecular docking study” (Bioorg Med Chem, 2019) can be followed below.

The structures appear in SMILES notation.

The assay addresses T1, Beta-glucuronidase (Homo sapiens, UniProt P08236).
T1 sequence (P08236 whole entry): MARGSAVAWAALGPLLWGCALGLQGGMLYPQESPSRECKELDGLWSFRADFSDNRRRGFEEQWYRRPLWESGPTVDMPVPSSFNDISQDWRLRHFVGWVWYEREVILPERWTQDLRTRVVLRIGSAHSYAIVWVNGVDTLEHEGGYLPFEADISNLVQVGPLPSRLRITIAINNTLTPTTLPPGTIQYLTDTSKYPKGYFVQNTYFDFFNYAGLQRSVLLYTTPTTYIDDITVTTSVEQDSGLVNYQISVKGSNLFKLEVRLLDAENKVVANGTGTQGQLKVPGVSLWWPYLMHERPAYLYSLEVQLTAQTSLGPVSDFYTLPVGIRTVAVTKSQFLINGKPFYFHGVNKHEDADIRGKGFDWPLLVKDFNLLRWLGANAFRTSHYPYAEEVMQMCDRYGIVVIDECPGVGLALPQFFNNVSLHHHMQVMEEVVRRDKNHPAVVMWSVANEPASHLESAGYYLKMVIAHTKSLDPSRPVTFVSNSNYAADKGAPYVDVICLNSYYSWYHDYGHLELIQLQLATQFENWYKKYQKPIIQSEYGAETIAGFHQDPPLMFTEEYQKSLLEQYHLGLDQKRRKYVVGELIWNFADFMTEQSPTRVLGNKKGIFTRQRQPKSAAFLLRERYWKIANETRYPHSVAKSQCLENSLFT
Description: Inhibition of human beta-glucuronidase pre-incubated for 30 mins before p-nitrophenyl-beta-D-glucuronide substrate addition by spectrophotometry
With `COc1cc(O)ccc1-c1nnc(-c2ccc(-c3nnc(-c4cccc(C)c4)s3)cc2)o1`, the IC50 result is “Not Active”.
In the case of `COc1cc(O)ccc1-c1nnc(-c2ccc(-c3nnc(-c4cccc([N+](=O)[O-])c4)s3)cc2)o1`, the IC50 result was “Not Active”.
The result for `COc1cc(O)ccc1-c1nnc(-c2ccc(-c3nnc(-c4cccnc4)s3)cc2)o1` reads “Not Active”.
For the molecule `COc1cc(O)ccc1-c1nnc(-c2ccc(-c3nnc(-c4ccncc4)s3)cc2)o1`, the IC50 entry was “Not Active”.
